According to PubChem BioAssay (NCI):
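Test compounds were applied to cells in 96-well plates for 48 hours at 5 doses. TGI is the concentration that stops growth completely.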

Legend:
Assay in all cases: NCI anticancer screen, dose series, 48 h
BT-549 breast = test system: BT-549 breast
EKVX NSCLC = test system: EKVX NSCLC
HCC-2998 colon = test system: HCC-2998 colon
LOX IMVI melanoma = test system: LOX IMVI melanoma
M14 melanoma = test system: M14 melanoma
MALME-3M melanoma = test system: MALME-3M melanoma
MOLT-4 leukemia = test system: MOLT-4 leukemia
NCI-H460 lung = test system: NCI-H460 lung
OVCAR-5 ovarian = test system: OVCAR-5 ovarian
OVCAR-8 ovarian = test system: OVCAR-8 ovarian
SF-539 CNS = test system: SF-539 CNS
SNB-75 CNS = test system: SNB-75 CNS
U251 CNS = test system: U251 CNS
UACC-257 melanoma = test system: UACC-257 melanoma

SMILES	TGI (BT-549 breast) [µM]	TGI (EKVX NSCLC) [µM]	TGI (HCC-2998 colon) [µM]	TGI (LOX IMVI melanoma) [µM]	TGI (M14 melanoma) [µM]	TGI (MALME-3M melanoma) [µM]	TGI (MOLT-4 leukemia) [µM]	TGI (NCI-H460 lung) [µM]	TGI (OVCAR-5 ovarian) [µM]	TGI (OVCAR-8 ovarian) [µM]	TGI (SF-539 CNS) [µM]	TGI (SNB-75 CNS) [µM]	TGI (U251 CNS) [µM]	TGI (UACC-257 melanoma) [µM]
Nc1[nH]c(=S)c2c(N)n[nH]c2c1C(=O)Nc1ccc(Cl)cc1	> 100	> 100	> 100	40.1	> 100	> 100	> 100	> 100	> 100	> 100	> 100	> 100	> 100	> 100
CC[C@H]1C=CCC[C@@]2(C[C@@H]3CC[C@@H]4[C@H](C(=O)OCCCCCCCCCCCCCCCC(=O)N(CCCNC(C)=O)C[C@H](CCNC(C)=O)OC(C)=O)[C@]5(CCC[C@@H](C)O5)NC(=[N+]34)N2)O1	2.93	1.89	0.221	0.0709	0.34	0.568	1.66	1.14	1.8	2.48	1.59	–	1.11	0.291
Cc1c(-c2ccc(O)c(O)c2)oc(=O)c2c(O)cccc12	44.6	> 100	22.1	–	20.7	26.9	> 100	41	33.5	> 100	48.4	76	26.1	44.3
NC(=O)C1N=NSC1NC(=O)c1ccc([N+](=O)[O-])cc1 (stereo not given)	> 100	> 100	> 100	–	> 100	> 100	> 100	> 100	> 100	> 100	–	> 100	> 100	> 100
COc1cc(Nc2nc3ccccc3nc2C(C)C)cc(OC)c1OC	> 100	> 100	> 100	> 100	> 100	> 100	> 100	> 100	> 100	> 100	> 100	> 100	> 100	> 100
COc1ccc(/C=C(/c2ccccc2)c2c(C)cc(C)c(/C(=C\c3ccc(OC)cc3)c3ccccc3)c2N=Nc2cc(C)cc(C)c2)cc1	> 100	> 100	> 25.8	> 100	> 100	56.6	> 100	> 75.2	> 100	> 100	> 100	34.2	> 100	18.8
CC(=O)OCCOCCN1CCN(c2c(O)c3c(c(O)c2Cl)C(=O)C=CC3=O)CC1	2.21	3.22	4.31	1.66	1.48	0.96	2.51	–	2.97	2.66	3.37	3.71	4.1	2.38
Cc1cc(C)c2c(=O)cc(-c3ccc4ccccc4c3)[nH]c2n1	> 100	> 100	> 81.8	> 74.9	67.5	> 100	12.9	> 100	> 100	> 100	> 93.4	> 90.7	65.7	> 59.6
CNc1nc2c(C)ccc3[nH]c(N(C)C)nc3c-2n1	> 100	> 100	> 100	> 100	51.1	95.6	> 100	> 100	> 100	> 100	64.5	> 100	> 100	> 100
CC(=O)OC(=C(C#N)C#N)c1nccnc1C(C)=O	> 20	> 20	> 20	> 20	11.8	> 20	> 20	> 20	> 20	> 20	> 20	18.6	> 20	> 20
COc1cc(C(=O)OCCn2[nH]c(-c3ccc(Cl)cc3)nc2=S)cc(OC)c1OC	> 100	> 100	> 100	> 100	> 100	> 100	> 100	> 100	> 100	> 100	> 100	–	> 100	> 100
COC(=O)c1ccc(C)cc1CC1Cc2c(C)cccc2C1=O (stereo not given)	21.1	73.5	25.2	32.2	> 54.1	45.1	> 47.2	> 78.3	> 100	> 68.8	22.3	20.9	20.8	49
CCOC(=O)c1cn2c(ccc3sc4ccccc4c(=O)c32)n1	> 100	> 100	> 100	> 100	–	> 100	> 100	> 100	> 100	> 100	> 100	> 100	> 100	> 100
O=S(=O)(/N=C(\NO)Nc1ccc(Cl)cc1)C1CC=C(c2ccon2)S1 (stereo not given)	> 63	> 100	50.4	> 100	> 100	43.2	> 51.3	> 65.8	> 100	> 100	16.9	–	> 100	> 100
NC(=O)SCC(=O)Nc1ccc2ncccc2c1	> 100	> 100	> 100	> 100	> 100	> 100	–	> 100	> 100	> 100	> 100	–	48.7	> 100
CCOP(C)(=O)/C(Cc1ccc(OC)c(OC)c1)=N\O (stereo not given)	> 100	> 100	> 100	> 100	> 100	> 100	> 100	> 100	> 100	> 100	> 100	> 100	> 100	–
CCCCCCCCCCCCCCCCOc1ccc(/C=C/C2=[N+](CCCl)CCO2)cc1	> 100	> 100	> 100	> 100	> 100	> 100	> 100	> 100	> 100	> 100	> 100	> 100	> 100	> 100

SMILES	TGI (BT-549 breast) [µM]	TGI (EKVX NSCLC) [µM]	TGI (HCC-2998 colon) [µM]	TGI (LOX IMVI melanoma) [µM]	TGI (M14 melanoma) [µM]	TGI (MALME-3M melanoma) [µM]	TGI (MOLT-4 leukemia) [µM]	TGI (NCI-H460 lung) [µM]	TGI (OVCAR-5 ovarian) [µM]	TGI (OVCAR-8 ovarian) [µM]	TGI (SF-539 CNS) [µM]	TGI (SNB-75 CNS) [µM]	TGI (U251 CNS) [µM]	TGI (UACC-257 melanoma) [µM]
CCn1c(=O)c2c3cc(OC(C)=O)ccc3oc2c2ccc(OC(C)=O)cc21	> 100	70.3	58.2	–	> 100	> 100	> 100	> 100	–	> 100	94.3	45	> 100	> 100
Cc1nc2ccccc2c(=O)n1/N=C/c1ccc(N(C)C)cc1	> 100	> 100	> 100	> 100	> 100	> 100	> 100	> 100	> 100	> 100	> 100	43.9	> 100	> 100
Cc1nn(-c2ccccc2)c2nc3ccc(Cl)cc3c(-c3ccccc3)c12	> 100	> 100	> 100	> 100	> 100	> 100	> 100	> 100	> 100	> 100	–	> 100	> 100	–
Nc1ccc(OCCCc2c(-c3ccccc3)nc(N)[nH]c2=O)cc1	> 100	> 100	> 100	> 100	> 100	> 100	> 100	> 100	> 100	> 100	> 100	> 100	> 100	> 100
Cc1ccc(NC(=O)/C(=N\NC(N)=O)c2c(O)c3ccccc3[nH]c2=O)cc1	> 100	–	> 100	> 100	> 100	–	> 100	> 100	> 100	> 100	> 100	> 100	> 100	> 100
CC(=O)OC1[C@@H](OC(C)=O)CN(OCc2ccccc2)C[C@H]1OC(C)=O (stereo not given in full)	> 100	> 100	> 100	> 100	> 100	–	> 100	> 100	> 100	> 100	> 100	> 100	> 100	> 100
O=c1c2c3c(sc2nc2n1N=C(c1ccc([N+](=O)[O-])cc1)CS2)CCCC3	> 100	> 100	> 100	> 100	–	> 100	> 100	> 100	> 100	> 100	> 100	> 100	> 100	> 100
O=P1(Oc2ccccc2)NCc2ncccc2O1 (stereo not given)	> 100	> 100	> 100	> 100	> 100	–	> 100	> 100	> 100	> 100	> 100	> 100	> 100	> 100
O=C(CCc1ccc(O)cc1)NCCCNC(=O)CCc1ccc(O)cc1	> 100	–	> 100	> 100	> 100	> 100	> 100	> 100	> 100	> 100	> 100	> 100	> 100	> 100
CCOC(=O)C1=C(C)NC(C)=C(C(=O)OCC)C1c1ccc(C)cc1	> 100	> 100	> 100	> 100	> 100	–	74.6	48	> 100	> 100	91.4	> 100	> 100	> 100
CCOC(=O)N1N(c2ccccc2)C(=O)C1(c1ccccc1)c1ccccc1	> 100	> 100	> 100	> 100	> 100	> 100	> 100	–	> 100	> 100	> 100	–	> 100	> 100
O=[N+]([O-])c1ccc(O)c(C=NCC2CCCN3CCCCC23)c1 (stereo not given)	> 100	> 100	74.5	> 100	53.2	> 100	–	> 100	> 100	> 100	> 100	> 100	–	> 100
Cc1nc2ccccc2n1Cc1nnc2n1N=C(c1ccccc1)CS2	80.8	> 100	68.1	–	> 100	> 100	> 100	> 100	> 100	–	> 100	59	> 100	65.3
CCCCN1C(=O)CS/C1=N/Nc1nc2c([nH]1)c(=O)n(C)c(=O)n2C	> 100	> 100	> 100	–	> 100	> 100	64.7	> 100	59.4	–	> 100	–	> 100	> 100
COc1ccc(/C=C2\CN(C)CC3C2=NN(c2ccccc2)C3c2ccc(OC)cc2)cc1 (stereo not given)	> 100	> 100	> 100	> 100	> 100	> 100	> 100	> 100	> 100	> 100	–	–	–	> 100
O=C1C2CC=CCC2C(=O)N1n1c(Cc2ccccc2)n[nH]c1=O (stereo not given)	> 100	> 100	> 100	> 100	> 100	> 100	> 100	> 100	> 100	> 100	> 100	–	> 100	> 100
O=C1CCCC[C@H]1C(O)CC1CC(=O)N(c2ccccc2)C(=O)C1 (stereo not given in full)	> 100	–	> 100	> 100	> 100	> 100	> 100	> 100	> 100	> 100	> 100	> 100	> 100	> 100
